Data as given in patent publication US10201519B2, “Stabilized pediatric suspension of carisbamate” (SK BIOPHARMACEUTICALS CO., LTD., priority 2007, dated 2019).

Assay: solubility of carisbamate in water
Format: physicochemical
Conditions: described as slightly soluble
Procedure: Carisbamate has been problematic to formulate in an aqueous suspension because it is slightly soluble in water, i.e., more than 2 mg/ml, so that temperature changes can cause the carisbamate particles to dissolve in the aqueous suspension medium and then re-crystallize out on the remaining carisbamate crystals and change the size of the resulting crystals or re crystallize in a different polymorphic form. This change in crystal size or polymorphic form, e.g., from Form A to Form B, can cause an undesirable change in bioavailability of the suspension. The present invention is based in part on the discovery that the addition of hypromellose (hydroxypropyl methyl cellulose or HPMC) in the proper concentration will prevent or stabilize this crystal growth and therefore serve to stabilize the suspension maintaining bioavailability and improving shelf life of the product.

solubility: > 2000 µg/mL
SMILES: NC(=O)OC[C@@H](O)c1ccccc1Cl [Carisbamate, S-(2-(2-chlorophenyl)-2-hydroxyethyl) oxocarboxamide]
